Our source for the Activity values is ChEMBL document CHEMBL1157186, “Characterization of chemical components in extracts from Si-wu decoction with proliferation-promoting effects on rat mesenchymal stem cells” (Bioorg Med Chem, 2008).

This assay deals with Mesenchymal stem cell. Nature of the assay: Induction of proliferation of rat mesenchymal stem cells by MTT assay. The format is functional, cell-based. (Tetrazolium assays rely on reduction of a dye to a coloured formazan, in cell work by metabolically active cells.)

Active and inactive are the calls of the source. No cut-off for these calls is given here.

Regarding `CCC/C=C1\OC(=O)C2=C1CCC=C2`, the result was Active. Next, `CC/C=C1\OC(=O)C2=C1C=CC(O)C2O` (configuration not stated): “Active”.
